This is an account of results in paper PMC8230802, “The Effects of Food on Cannabidiol Bioaccessibility” (Molecules, 2021).

“And” between values parts separate entries of the source, which are not always exact repeats. Identical values can stand only once. Like-named read-outs stand apart in the source and are kept apart here.

One data set deals with lipase. Description: Lipase activity assay with pNPP substrate. The class given is biochemical. Here is the method: The lipase, pancreatin and bile were purchased from Sigma-Aldrich. The p-nitrophenyl palmitate (pNPP), a […] compound (N2752, Sigma-Aldrich), was used as a substrate for the lipase enzyme as previously described. Upon hydrolysis of palmitate from pNPP, the resulting product is 4-nitrophenol (4-NP), and can be measured spectrophotometrically at 410 nm.
Final assay enzyme concentrations were 1:2 mg/mL lipase:pancreatin and 1:2:3 mg/mL lipase: pancreatin:bile using 96 well plates separately just as in the artificial digestion protocol. Controls consisted of phosphate buffer and lipase enzyme without substrate pNPP. Experimental wells contained substrate pNPP in phosphate buffer and the lipase enzyme. All experimental and control wells were performed in triplicate. Temperature was set at 37 °C and the spectrophotometer was set to collect kinetic data over 2 h for the lipase: pancreatin (1:2) experiment. Substrate concentrations were 0.1 mM and 1.0 mM and were made from the 10.0 mM stock solution of pNPP in isopropanol. 4-NP dilutions in phosphate buffer were used to make a standard curve ranging from 5–1000 µM.
On a separate 96 well plate, the same procedure was followed for the lipase: pancreatin: bile salt (1:2:3) experiment. Control and experimental samples were the same as mentioned above for the 1:2 mg/mL lipase: pancreatin experiment. […] After an incubation period of 30 min at 37 °C, 25 µL of the reaction mixture (supernatant) was taken and immediately mixed with 1 mL of 0.1 N NaOH in a 1 mL cuvette to stop the reaction and dilute the sample. The liberated pNP was detected at 410 nm, and bile salt interference was corrected by using a blank without substrate for background subtraction. The reaction rates for this experiment were obtained from the slope of the absorbance versus the time curve by using an extinction coefficient for the p-nitrophenol (pNP) that was determined from the absorbance of pNP as a standard solution.

Data set [1] is described as follows: Fed state three-phase in vitro digestion of CBD (olive oil and baby food). As to conditions: for Digestive stability: CBD in DG / raw material x 100. The class given is in vitro ADME. As to the method: For the fed in vitro digestion experiment, CBD was mixed with foods and oil. Briefly, 10 mg and 100 mg CBD were each first mixed with 0.5 g olive oil, and then added to 2 g baby food (Turkey and Gravy, Gerber, IL, USA). The oral phase samples were vortexed for 30 s followed by the gastric and intestinal phase protocols mentioned above. After the completion of the three-phase in vitro digestion procedure, 15 mL of the DG sample was collected, blanketed with nitrogen and kept at −80 °C for further analysis. The rest of the DG sample was centrifuged at 10,000× g for 1 h at 4 °C and the AQ fraction was collected, filtered, diluted in acetonitrile 1:2 (v/v) and blanketed with nitrogen and kept at −80 °C for the UPLC-MS analysis.
(§1) Diluted AQ and DG fractions were filtered using the 0.2 µm nylon filters for DG fraction and injected for analysis by ultra-performance liquid chromatography-mass spectrometry (UPLC-MS) to obtain CBD concentration values. Percent (%) recovery values were calculated for CBD using the following equation:(1) % Recovery=Concentration in AQ/Concentration in DG×100
(§2) CBD was quantified in pellet (P), digesta (DG) and aqueous (AQ) fractions by liquid chromatography—mass spectrometry. Digestive stability, the percentage recovery of CBD in DG fraction was calculated by dividing the moles of CBD quantified in DG by the moles of CBD quantified in raw material (RM) multiplied by 100. The micellarization efficiency is the percentage of CBD recovered in the AQ phase of digestion and was calculated by dividing the moles of CBD in AQ by the moles of CBD in DG multiplied by 100.

On the set-up of data set [2]: method as in PMID 6262948. As to conditions: Rhesus monkeys, on average; cited from earlier work.
On the set-up of data set [3]: method as in PMID 27648135. As to conditions: rats; cited from earlier work.
The conditions of data set [4]: with sesame oil; cited from earlier work.
A short description of data set [5]: MS/MS survey of metabolites in digestion phases. It is filed as in vitro ADME. To be noted: DG, AQ and P phases, negative ion mode. As to the method: To further confirm the presence of any metabolites in the DG, AQ, and P phases, an MS/MS survey was performed on negative ion mode with the inclusion list of all the masses for the expected metabolites (Table S2). The setting for TOF MSMS function was as follows: centroid data format, negative mode and polarity, mass rages from 100 to 1000, time 0 min to 25.0 min and scan time 2.1 s with inter scan time of 0.1 s. The instrument parameters were as follows: capillary 3000.0 V, sample cone 35.0 V, source temperature 100 °C and collision energy 5.0.

Data set [6] in a line: Fasted state three-phase in vitro digestion of CBD. To be noted: for Micellarization efficiency: CBD in AQ / DG x 100; for Digestive stability: CBD in DG / raw material x 100. It is filed as in vitro ADME. As to the method: The three-step in vitro digestion employed to mimic the human digestive tract in this study consisted of an oral phase, a gastric phase, and an intestinal phase. The method used was modified slightly from a previously described protocol. For the fasted state digestion oral phase, 10 mg and 100 mg of CBD were added to 1 mL distilled water in a 50 mL pyrex glass centrifuge tube (DAIGGER Scientific, Hamilton, NJ, USA) and mixed with 1 mL oral fluid. The mixtures were vortexed for 30 s and immediately the gastric phase of digestion was started by adding pepsin into NaHCO3 and the pH was adjusted to 2.5. The mixtures were blanketed with nitrogen gas, wrapped in parafilm, and shaken in a 37 °C incubator for 1 h in the dark at 95 rpm. Meanwhile, the intestinal phase was prepared (Table S1) by mixing bile in NaHCO3 and sonicating it for 45 min. For the intestinal phase, the pancreatin-lipase (2 mL of 2:1 ratio) was mixed into the same solution as bile salt. The enzyme solution and the bile solution were added to the tube containing the gastric phase and the pH was adjusted to 6.5 using 1N NaOH. The digestion sample tubes were blanketed with nitrogen and shaken for another 2 h at 37 °C in the dark at 95 rpm. After completion of the intestinal phase, 4 mL of the resulting Digesta (DG) was transferred into conical tubes, diluted with acetonitrile DG: Acetonitrile 1:2 (v/v), blanketed with nitrogen, and kept at −80 °C for analysis by UPLC-MS. The remaining volumes of the DG samples were centrifuged at 10,000× g at 4 °C for 60 min (Beckman L7-65 Ultracentrifuge, Beckman Instruments, Palo Alto, CA, USA). After centrifugation, the aqueous supernatant (AQ) containing the micellar fractions were filtered through the 0.22 µm pore (VWR, USA), diluted with acetonitrile AQ: Acetonitrile 1:2 (v/v) and stored at −80 °C for further analysis. The insoluble pellet was dissolved into the acetonitrile 1:2 (v/v) for further analysis.
as §1, §2

With `CCCCCCCCCCCCCCCC(=O)Oc1ccc([N+](=O)[O-])cc1` [pNPP, p-nitrophenyl palmitate], the “% mole conversion of pNPP to NP” value is 95.5 ± 7.6% in the data set with lipase (0.1 mM pNPP, 1:2:3 lipase:pancreatin:bile); 93.6 ± 0.3% in the data set with lipase (0.1 mM pNPP, 1:2 lipase:pancreatin); 58.6% and 58.6 ± 5.7% in the data set with lipase (1 mM pNPP, 1:2:3 lipase:pancreatin:bile); 20.6% and 20.6 ± 0.07% with lipase (1 mM pNPP, 1:2 lipase:pancreatin).

Take `C=C(C)[C@@H]1CCC(C)=C[C@H]1c1c(O)cc(CCCCC)cc1O` [CBD, Cannabidiol]: the “Increase in CBD recovery in the micellar fraction, fed vs fasted state digestion” value in data set [1] (fed digestion compared to fasted state digestion) was 22 fold. The Micellarization efficiency amounted to 14.15 ± 0.6% in data set [1] (fed state digestion, 10 mg CBD, CBD in AQ / DG x 100); 0.65 ± 0.7% in data set [6] (10 mg CBD); 0.14 ± 0.1% in data set [6] (100 mg CBD). The Digestive stability in data set [1] (fed state digestion, 10 mg CBD) came out at 91.39 ± 25%; in data set [1] (fed state digestion, 100 mg CBD), 83.1 ± 25%; in data set [6] (10 mg CBD), 72.99 ± 6%; in data set [6] (100 mg CBD), 95.67 ± 2%. Further, the recovery at 3 h, 10 mg CBD per digestion (in 0.5 g olive oil + 2 g baby food) in data set [1] (fed state digestion, 10 mg CBD, read-out: % recovery in aqueous (AQ) micellar fraction) was determined as 12.9 ± 7%; in data set [1] (fed state digestion, 10 mg CBD, read-out: % recovery in digesta (DG)), 91.4 ± 25%; in data set [1] (fed state digestion, 10 mg CBD, read-out: % recovery in pellet (P)), 90.2 ± 18%. Moreover, the recovery at 3 h, 100 mg CBD per digestion (in 0.5 g olive oil + 2 g baby food) in data set [1] (fed state digestion, 100 mg CBD, read-out: % recovery in aqueous (AQ) micellar fraction) was found to be 18.6 ± 10%; in data set [1] (fed state digestion, 100 mg CBD, read-out: % recovery in digesta (DG)), 83.1 ± 25%; in data set [1] (fed state digestion, 100 mg CBD, read-out: % recovery in pellet (P)), 87.9 ± 29%. Also, the Oral bioavailability in data set [2] is listed as 16%. Moreover, the “Increase in bioavailability by co-administration of lipids” value in data set [3] was 2.5 fold. Besides, the “Recovery / bioavailable in the micellar fraction” value in data set [4] is given as 30%. Besides, in data set [5], the “Metabolites of CBD in digestion phases (MS/MS survey)” value was “No metabolites of CBD were observed”. The recovery at 3 h, 10 mg CBD per digestion (in 1 mL water + 1 mL oral fluid) in data set [6] (10 mg CBD, read-out: % recovery in aqueous (AQ) micellar fraction) is 0.69 ± 1.5%; in data set [6] (10 mg CBD, read-out: % recovery in digesta (DG)), 73 ± 6%; in data set [6] (10 mg CBD, read-out: % recovery in pellet (P)) it was 92.2 ± 10%. Moreover, the recovery at 3 h, 100 mg CBD per digestion (in 1 mL water + 1 mL oral fluid) in data set [6] (100 mg CBD, read-out: % recovery in aqueous (AQ) micellar fraction) turned out to be 0.15 ± 1%; in data set [6] (100 mg CBD, read-out: % recovery in digesta (DG)) it was 95.7 ± 2%; in data set [6] (100 mg CBD, read-out: % recovery in pellet (P)), 74.1 ± 1.3%.

For the compound `CCCCCc1cc(O)c2c(c1)OC(C)(C)[C@@H]1CCC(C)=C[C@@H]21` [THC, Δ9-tetrahydrocannabinol], in data set [3], the “Increase in bioavailability by co-administration of lipids” value is 3 fold. Moreover, the “Recovery / bioavailable in the micellar fraction” value in data set [4] is on record as 30%.
